We go through one sequence from publication PMC5444726, “A CD44-specific peptide, RP-1, exhibits capacities of assisting diagnosis and predicting prognosis of gastric cancer” (Oncotarget, 2017).

The test system of data set [1] is CD44 on MKN-28-CD44-ox cells. In words: Confocal immunofluorescence of peptide binding to CD44-overexpressing MKN-28 cells. Format: cell-based, human. Particulars: 100 μM Alexa Fluor 594 labeled peptide, 20 min, fixed cells, confocal microscopy. The procedure:
(§1) Plasmids containing cDNA of CD44 protein were synthesized by GENECHEM, Shanghai, China. Using Pfu polymerase and two oligonucleotides ([…] and […]), the CD44 cDNA was cloned into Xhol and ECOR1 sites of GV146 (GENECHEM, Shanghai, China) by recombinant PCR. Then, CD44-negative MNK-28 cells were transfected with the plasmid with Lipofectamine 2000 reagent (Invitrogen, California, USA), and then the efficiency of CD44 expression in MKN-28 cells was tested. Finally, two cell lines were generated as following: MKN-28-con with no CD44 expression and MKN-28-CD44-ox with CD44 overexpression labeled with enhanced green fluorescent protein (EGFP).
(§2) For the preparation of confocal laser microscopy, the transfected MNK-28 cancer cells were washed with phosphate buffer saline (PBS) three times, then fixed with 4% paraformaldehyde at ambient temperature for 30 min, and blocked with 5% BSA (w/v) in PBS at 37°C for 1 h. The blocked cells were sequentially incubated with 100 μM RP-1 or WYP labeled with Alexa Fluor 594 for 20 min, and counterstained with 4,6-diamidino-2-phenylindole (DAPI). […] For the evaluation of the correlation of fluorescent intensities between CD44-EGFP and RP-1-Fluor 594, a semi-quantitative analysis was performed with ImageJ 1.48v software (National Institutes of Health, Maryland, USA) by randomly selecting and observing 10 fields of vision. […]

The subject of another data set is SGC-7901 tumor tissue. In words: Fluorescence microscopy of frozen xenograft sections after injection. Particulars: 3 h after i.v. injection of peptide. The class given is in vivo, athymic nude mice. The procedure:
Once fluorescence signal reached its peak at the site of tumor, subcutaneous tumor tissues were harvested for further experiment. After shock-frozen with liquid nitrogen, tumor tissues were cut into 5 μm sections and fixed in 4% paraformaldehyde at ambient temperature for 30 min. The coverslips were mounted with glycerol–gelatin containing anti-fading buffer (Bioworld, Minnesota, USA). Finally, the fluorescence images of frozen sections were captured with a fluorescent microscope (Nikon-Eclipse, Tokyo, Japan)

A further data set relates to CD44 protein. Conditions: peptide screened from 12-mer phage peptide library; ref [25]; cited from earlier work. The text has this:
The purpose of the current study was to validate the specificity and affinity of RP-1 in both in vitro and in vivo experiment ...

Data set [2] deals with SGC-7901 subcutaneous xenograft. In words: In vivo fluorescence imaging and biodistribution in SGC-7901 xenograft mice.
Method: All animal procedures were approved by the Ethics Committee of Xi’an Jiaotong University and conducted in accordance with the Helsinki Declaration (1975). Athymic nude mice (male, 4–5 weeks old, with a body weight of 20–25 g) were obtained from the Animal Experiment Center of Xi’an Jiaotong University, Xi’an, China. The SGC-7901 tumor xenografts were generated by subcutaneous injection of 5–8 × 10^6 SGC-7901 cells suspended in 200 μL culture medium into the left axilla of mice. The cells were allowed to grow for 2 weeks until tumor volume reached an estimate of 1 cm^3.
In vivo fluorescence imaging was performed with the IVIS Spectrum Imaging System and analyzed with the IVIS Living Imaging 4.2 software (Xenogen, California, USA). Identical imaging settings (exposure time: 40s; binning: 16; lens aperture [f/stop]: 4; field of view: 13.3) were used for capturing images. Fluorescent intensity was normalized and presented as (p/sec/cm^2/sr)/(μW/cm^2). The mice from the experimental group (n = 10) and control group (n = 10) were intravenously injected with 1 mg/kg FITC-RP-1 and FITC-WYP, respectively. Mice anesthetized with isoflurane were subjected to optical imaging at each hour since 1h after injection. Finally, solid tumors, tissues, and organs were all harvested and rinsed with PBS for further analysis of the distribution of FITC-RP-1.
Data set [3] has as its system MKN-28 cells not expressing CD44 transgenes. In words: Confocal immunofluorescence of peptide binding to non-CD44 MKN-28 cells. Particulars: 100 μM Alexa Fluor 594 labeled peptide, 20 min, co-culture with CD44-overexpressing cells, confocal microscopy. Format: cell-based, human. The procedure:
as §1, §2

Setting [4] is: excised tissue, 3 h after i.v. FITC-RP-1, 1 μg/g.

Consider “WHPWSYLWTQQA [RP-1, CD44-specific peptide … screened from a 12-mer phage peptide library]”, for which the “binding of peptide to CD44 on the cell membrane” value in data set [1] is reported as “apparent binding of RP-1 peptides to CD44 on the cell membrane”. In addition, the “fluorescence on tumor cells in frozen sections” value in the data set with SGC-7901 tumor tissue is “fluorescence signals were observed both on cell membrane and in cytoplasm”. Moreover, the “binding to CD44 protein” value in the data set with CD44 protein is “can specifically bind to CD44 protein”. Moreover, the “organs with accumulation (fluorescence of excised tissues)” value in data set [2] (3 h after i.v. injection of FITC-labeled peptide, 1 μg/g) was “accumulation of RP-1 in tumor tissue and liver”. The “fluorescence signal remaining (elimination)” value in data set [2] (6 h after intravenous injection) is reported as “almost undetectable”. Also, in data set [2] (setting [4]), the “fluorescent intensity, kidney” value was 2.00 × 10^8 (p/sec/cm^2/sr) /(μW/cm^2); the “fluorescent intensity, liver” value was 5.58 × 10^8 (p/sec/cm^2/sr) /(μW/cm^2); the “fluorescent intensity, stomach” value is on record as 2.28 × 10^8 (p/sec/cm^2/sr) /(μW/cm^2). The “fluorescent intensity, tumor” value in data set [2] (excised tissue, 3 h after i.v. FITC-RP-1, 1 μg/g, tumor vs other organs P < 0.001) is recorded as 1.14 × 10^9 (p/sec/cm^2/sr) /(μW/cm^2). The “binding of peptide to cells without CD44” value in data set [3] was “bound considerably lower amounts of RP-1 peptide”.
